Patent publication US8853424B2 (Japan Science and Technology Agency, priority 2008, dated 2014)
Like-named read-outs stand apart in the source and are kept apart here.

Tests used:
[1] = test system: SOC (store operated calcium channel); assay: Measurement of SOC IC50 (thapsigargin store depletion, calcium re-addition, CHO cells); format: cell-based; conditions: read-out: SOC IC50
Protocol: The SOC (store operated calcium channel)-suppressive action can be measured by the method described in the Example and using, for example, FDSS 3000.
CHO cell culture medium was replaced with a BSS solution which is an extracellular fluidfree of calcium, the compound of the present invention was added 1 min later, and 1 μM thapsigargin was allowed to act thereon 2 min later to deplete intracellular calcium store. […]

[2] = test system: Truncated N-terminal huntington 150 Q-EGFP-Neuron 2a cells; assay: Measurement of x-Fold (polyglutamine aggregation inhibitory activity); format: cell-based
Protocol: In the present invention, the polyglutamine aggregation inhibitory activity (x-Fold) can be measured, for example, by the method described in the Example.
The number of the aggregated cells, and the total number of cells were counted by Array Scan V T1 (manufactured by Cellomics, Pittuburg, USA), and the ratio of the aggregated cells to the total number of cells was determined (x-Fold). […]

transglutaminase (TGase) = assay: Measurement of TG (TGase inhibitory activity, monodansyl cadaverine / N,N-dimethylcasein fluorescence, FDSS 3000); format: biochemical
Outline: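 Compound (1 μL of 10 mM stock) added to 0.1 mL reaction: 100 mM HEPES-NaOH pH 7.5, 1 mM CaCl2, 20 μM monodansyl cadaverine, 0.05 mg/mL N,N-dimethylcasein, 5 μg/mL TGase. Rate of fluorescence change at 340 nm measured; DMSO control set to 100; TG50 is the concentration halving activity.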

[3] = Cricetulus griseus, CHO, CHO cells, 1 μM thapsigargin, 2 mM calcium chloride
[4] = Cricetulus griseus, CHO, Table 1
[5] = polyglutamine aggregation inhibitory activity, Table 1
[6] = ratio of aggregated cells to total number of cells, compound 20 μM, 20 hr, almost 1 without compound, smaller = stronger inhibition
[7] = TGase activity with compound (10 mM, 1 μL in 0.1 ml enzyme reaction solution), DMSO control taken as 100
[8] = CHO cells, 1 μM thapsigargin, 2 mM calcium chloride
[9] = polyglutamine aggregation, Truncated N-terminal huntington 150 Q-EGFP-Neuron 2a cells
[10] = TGase inhibitory activity value, Table 1
[11] = Cricetulus griseus, CHO, CHO cells, thapsigargin store depletion

## Cc1ccc(B(OCc2ccccn2)c2ccc(C)c(Cl)c2)cc1Cl [Example 215]
[1]; [3]
  IC50: 2000 nM
[1]; [4]
  IC50: 2000 nM
[2]; [5]
  x-Fold: 1.03
[2]; [6]
  x-Fold: 1.03

## CNCCOB(c1ccc(COCc2ccc(B(OCCNC)c3ccc(C)c(Cl)c3)cc2)cc1)c1ccc(C)c(Cl)c1 [Example 421, bis(4,4′-(3-chloro-4-methylphenyl-N-methylaminoethoxyboryl)benzyl)ether]
Transglutaminase (TGase); [7]
  TGase activity remaining (% of DMSO control = 100): −1
Transglutaminase (TGase); TGase inhibitory activity measurement, unit not given
  TGase activity remaining (% of DMSO control = 100): −1
[1]; [8]
  IC50: 1200 nM
[2]; [5]
  x-Fold: 0.87
[2]; [9]
  x-Fold: 1.03
[2]; [6]
  x-Fold: 1.03

## NCCOB(c1ccccc1)c1ccc(COCc2cccc(B(OCCN)c3ccccc3)c2)cc1 [Example 332, (3-(phenylaminoethoxyboryl)benzyl)(4-(phenylaminoethoxyboryl)benzyl)ether]
Transglutaminase (TGase); [7]
  TGase activity remaining (% of DMSO control = 100): 21
Transglutaminase (TGase); [10]
  TGase activity remaining (% of DMSO control = 100): 21
[1]; [3]
  IC50: 200 nM
[1]; [4]
  IC50: 200 nM
[2]; [5]
  x-Fold: 0.98
[2]; [6]
  x-Fold: 0.98

## OB(c1ccccc1)c1cccc(B(O)c2ccccc2)c1 [compound 554]
[1]; [4]
  IC50: > 20000 nM

## OB(c1ccccc1)c1ccc(COCc2cccc(B(O)c3ccccc3)c2)cc1 [Example 329, (3-(phenylhydroxyboryl)benzyl)(4-(phenylhydroxyboryl)benzyl)ether]
Transglutaminase (TGase); [7]
  TGase activity remaining (% of DMSO control = 100): 81
Transglutaminase (TGase); [10]
  TGase activity remaining (% of DMSO control = 100): 81
[1]; [3]
  IC50: 200 nM
[1]; [4]
  IC50: 200 nM

## CN(C)CCOB(c1ccccc1)c1cccc(COCc2cccc(B(OCCN(C)C)c3ccccc3)c2)c1 [Example 403, bis(3,3′-(phenyl-N,N-dimethylaminoethoxyboryl)benzyl)ether]
[1]; [3]
  IC50: 2000 nM
[1]; [11]
  IC50: 2000 nM
[2]; polyglutamine aggregation, Truncated N-terminal huntington 150 Q-EGFP-Neuron 2a cells, listed as 2022
  x-Fold: 1.14
[2]; [6]
  x-Fold: 1.14

## bis(3-chloro-4-methylphenyl hydroxyborylbenzyl)ether [Example 125]
Transglutaminase (TGase); [7]
  TGase activity remaining (% of DMSO control = 100): 113
Transglutaminase (TGase); [10]
  TGase activity remaining (% of DMSO control = 100): 113
[1]; [8]
  IC50: 10000 nM

## Cc1ccc(B(OC(=O)C(N)CC(N)=O)c2ccc(C)c(Cl)c2)cc1Cl (centres unmarked) [compound 4103]
[1]; [4]
  IC50: 300 nM

## OB(c1ccccc1)c1ccc(COc2ccc(B(O)c3ccccc3)cc2)cc1 [Example 370, (4-phenylhydroxyborylphenyl)(4′-phenylhydroxyborylbenzyl)ether]
[1]; [3]
  IC50: 2000 nM
[1]; [4]
  IC50: 2000 nM
[2]; [5]
  x-Fold: 0.76
[2]; [6]
  x-Fold: 0.76

## NCCOB(c1ccc(COc2ccc(B(OCCN)c3ccc(C(F)(F)F)cc3)cc2)cc1)c1ccc(C(F)(F)F)cc1 [Example 373, (4-trifluoromethylphenylaminoethoxyborylphenyl)(4′-trifluoromethylphenylaminoethoxyborylbenzyl)ether]
[1]; [3]
  IC50: 2000 nM
[1]; [4]
  IC50: 2000 nM
[2]; [5]
  x-Fold: 0.84
[2]; [6]
  x-Fold: 0.84

## NCCSB(c1ccccc1)c1cccc(COCc2cccc(B(SCCN)c3ccccc3)c2)c1 [Example 405, bis(3,3′-(phenyl-aminoethylthioboryl)benzyl)ether]
[1]; [3]
  IC50: 500 nM
[1]; [11]
  IC50: 500 nM
[2]; [9]
  x-Fold: 0.86
[2]; [6]
  x-Fold: 0.86

## OB(c1ccc(COc2ccc(B(O)c3ccc(C(F)(F)F)cc3)cc2)cc1)c1ccc(C(F)(F)F)cc1 [Example 372, (4-trifluoromethylphenylhydroxyborylphenyl)(4′-trifluoromethylphenylhydroxyborylbenzyl)ether]
[1]; [3]
  IC50: 1000 nM
[1]; [4]
  IC50: 1000 nM
[2]; [5]
  x-Fold: 0.86
[2]; [6]
  x-Fold: 0.86

## CC1[NH2+][B-](c2ccccc2)(c2ccccc2)OC1=O (centres unmarked) [Example 258, diphenyl(alaninate-O,N)borane]
Transglutaminase (TGase); [7]
  TGase activity remaining (% of DMSO control = 100): 110
Transglutaminase (TGase); [10]
  TGase activity remaining (% of DMSO control = 100): 110
[1]; [3]
  IC50: 5000 nM
[1]; [4]
  IC50: 5000 nM

## NC(CCC(=O)O)C(=O)OB(c1ccccc1)c1ccc(Oc2ccc(B(OC(=O)C(N)CCC(=O)O)c3ccc(CO)cc3)cc2)cc1 (centres unmarked) [compound 1036]
[1]; [4]
  IC50: 300 nM
